The source of these data is patent publication US8394832B2, “Methods and compositions using immunomodulatory compounds for the treatment of immunodeficiency disorders” (Celgene Corporation, priority 2004, dated 2013).

Molecules are shown by their SMILES.

Series [1] deals with IgE synthesis. Nature of the series: IgE ELISA of human PBMC treated with anti CD40 and IL-4 for three weeks. It counts as cell-based. The settings on record: 504 h, human PBMCs in presence of CD40+IL-4 for three weeks (FIGS. 11A and B), read-out: IC50 of inhibition of IgE synthesis. The protocol:
Human PBMCs (1×10^6/ml) were treated with immunomodulatory compounds in presence of anti-CD40 (2 ug/ml) and IL-4 (40 ng/ml) for three weeks. Fifty microliter of supernatant was used for IgE ELISA, following the manufacturer's instruction. The absorbance was read by ELISA reader at OD=450 nm.
IL-4 is a unique signal for B cells to produce IgE during the immunoglobulin class switch. To assess whether immunomodulatory compounds can regulated IgE synthesis, 1,3-dioxo-(2,6-dioxopiperidin-3-yl)-4-aminoisoindoline or 1-oxo-(2,6-dioxopiperidin-3-yl)-4-aminoisoindoline was incubated with human PBMCs in presence of CD40+IL-4 for three weeks. […] (FIGS. 11A and B).
Treatment of PBMC: 200 μl of 1×10^6/ml human PBMC were plated in 96 well plate, and the cells were pretreated with IMiDs at indicated concentrations (60, 6, 0.6, 0.06, 0.006, 0.0006 uM) for 30 minutes. Anti CD40 (#AHS4002, Biosource, 2 μg/ml) and IL-4 (#200-04, Pepro Tech, 40 ng/ml) were added to each well. Human PBMC in presence of IMiDs, anti CD40 and IL-4 were incubated for three weeks. Fifty microliters of supernatant was subjected to IgE ELISA.
IgE ELISA: The IgE ELISA Quantitation Kit was purchased from Bethyl Laboratories, Inc. (#E80-108). […] The ELISA plate was read at OD=450 nm in ELISA plate reader.

The test system of series [2] is B cells. Nature of the series: B cell proliferation by BrdU ELISA. The settings on record: 3 days (FIG. 7A). It counts as cell-based, human. The protocol:
(§1) Human buffy coat (50 ml) was diluted with 50 ml sterile PBS (Ca^++, Mg^++ free), and mixed gently. A 25 ml aliquot of diluted buffy coat was transferred to each 50 ml centrifuge tube, and Histopaque-1077 (14 ml, #1077-1, Sigma) was gently layered into the bottom of the tube. The sample was centrifuged at 2,000 rpm for 30 min at room temperature. The interface containing mononuclear cells was transferred into 50 ml centrifuge tube, and washed once with PBS (1200 rpm, 5 min). The supernatant was discarded. Cell pellet was resuspended in Miltenyi buffer. Anti-CD19^+ microbeads were added to the suspension (10^7 cells in 80 μl of buffer, 20 μl antibody beads for 10^7 cells) and incubated for 15 min at 4° C. Cell pellet was washed once and resuspended in 1 ml Miltenyi buffer. The cell suspension was added to the magnetic column, washed with 10 ml Miltenyi buffer in the column. CD19^+ cells are released by 1 ml Miltenyi Buffer without magnetic field. CD19^+ cells were washed twice with RPMI complete medium. B cells (2×10^5) were plated in 96 well plate.
B cells were pretreated with 1,3-dioxo-(2,6-dioxopiperidin-3-yl)-4-aminoisoindoline or 1-oxo-(2,6-dioxopiperidin-3-yl)-4-aminoisoindoline at the concentrations of 60 μM, 6 μM, 0.6 μM, 0.06 μM, 0.006 μM, and 0.0006 μM for 30 min, then were added 2 μg/ml of anti-IgM, 2 μg/ml of anti CD40, 40 ng/ml IL-4, 100 ng/ml of recombinant BAFF, and/or 0.5 μg/ml of LPS. B cells were typically treated with the immunomodulatory compound alone or in presence of one or more of above stimuli for 3 days. Stimulated B cells with or without the treatment with immunomodulatory compound were used for cell proliferation assay and cytokines analysis.
The crosslinking of B cell receptor antigen (“BCR”) is the primary signal for B cell activation in response to antigen, and is critical in initializing subsequent B cell activation, proliferation, and differentiation. To assess B cell activation, B cells were treated with 1,3-dioxo-(2,6-dioxopiperidin-3-yl)-4-aminoisoindoline or 1-oxo-(2,6-dioxopiperidin-3-yl)-4-aminoisoindoline in presence of stimuli for 3 days. 25 μl BrdU was added to 250 μl cell culture 24 hours before harvesting cells. B cells were dried at 60° C. after removal of labeling supernatant. 100 μl FixDenat solution was added to fix cells for 30 min at room temperature. FixDenat solution was removed by tapping plate, then 100 μl anti-BrdU-POD was added each well for 90 min, at room temperature, and the plate was washed three 3 times. 100 μl of substrate was added to plate for 10 min, then 100 μl stop solution was added. Absorbance was measured by using an ELISA microplate reader (Molecular Devices) at OD 450 nm. […]

The subject of series [3] is CD69. The series can be described thus: FACS analysis of CD69 expression in CD19+ B cells. The class given is cell-based, human. The protocol:
as §1
B cells were treated with 1,3-dioxo-(2,6-dioxopiperidin-3-yl)-4-aminoisoindoline (FIG. 3A) or 1-oxo-(2,6-dioxopiperidin-3-yl)-4-aminoisoindoline (FIG. 3B) in presence of anti IgM, anti CD40 and IL-4 for 3 days. The suspension of B cells was washed by PBS once, and incubated with FITC conjugated anti human CD69 for 30 min in the dark. B cells were subject to FACS analysis using flow cytometer (EPICS XL-MCL, Beckman Coulter Company).
To assess whether the effects of immunomodulatory compounds on IL-4 signaling impact on IL-4 mediated B cell activation, FACS array of immediate early expression marker CD69 expression at triplicates and six doses was examined using 1,3-dioxo-(2,6dioxopiperidin-3-yl)-4-aminoisoindoline or 1-oxo-(2,6-dioxopiperidin-3-yl)-4-aminoisoindoline. […] Thus, it is clear that immunomodulatory compounds have no impact on this process.

Series [4] has as its system TNFα. The series can be described thus: TNFα ELISA of treated B cells. The settings on record: activated CD19+ cells (FIG. 4). The class given is cell-based, human. The protocol:
as §1, with “plate. […]” for “plate.”
TNFα levels in 1,3-dioxo-(2,6-dioxopiperidin-3-yl)-4-aminoisoindoline or 1-oxo-(2,6-dioxopiperidin-3-yl)-4-aminoisoindoline treated B cells were determined using TNFα ELISA.

For series [5] the following is noted: cited from earlier work; for hygroscopicity: crystalline polymorphic form; for interconversion of the polymorphic form: solvent system, humidity or heating.

As for `Nc1cccc2c1CN(C1CCC(=O)NC1=O)C2=O` (stereo not shown) [1-oxo-(2,6-dioxopiperidin-3-yl)-4-aminoisoindoline], the IC50 in series [1] was 100 to 300 nM. For the same molecule, the B cell proliferation result in series [2] (combined with IgM (anti-IgM)) is recorded as “enhance”. In series [2] (compound alone), the “effect on B cell activation/proliferation” value is “minimal effect”. The CD69 expression result was “dose-dependently enhanced” in series [3] (CD19+ B cells treated with anti human IgM, anti human CD40 and IL-4, 3 days (FIGS. 3A, 3B)); “neither immunomodulatory compound inhibited” in series [3] (IL-4 stimulated CD19+ B cells, triplicates, six doses (FIGS. 10A and B)). Moreover, the “TNFα production in B cells” value in series [4] is on record as “dose dependently enhance”.
As for `Nc1cccc2c1CN(C1CCC(=O)NC1=O)C2=O` (stereo not shown) [Form A, 3-(4-amino-1-oxo-1,3 dihydro-isoindol-2-yl)-piperidene-2,6-dione], the “relative stability of the polymorphic form” value in series [5] (Form A among anhydrous polymorphs, Form E in aqueous solvent systems) was “most thermodynamically stable anhydrous polymorph”. The hygroscopicity entry in series [5] is given as “weakly or not hygroscopic”.
As to `Nc1cccc2c1CN(C1CCC(=O)NC1=O)C2=O` (stereo not shown) [Form B, 3-(4-amino-1-oxo-1,3 dihydro-isoindol-2-yl)-piperidene-2,6-dione], the “interconversion of the polymorphic form” value in series [5] is listed as “converts to Form E in aqueous solvent systems”.
For the molecule `Nc1cccc2c1CN(C1CCC(=O)NC1=O)C2=O` (stereo not shown) [Form C, 3-(4-amino-1-oxo-1,3 dihydro-isoindol-2-yl)-piperidene-2,6-dione], in series [5], the hygroscopicity entry is reported as “not hygroscopic below about 85% RH” and the “interconversion of the polymorphic form” value is recorded as “can convert to Form B at higher relative humidities”.
Take `Nc1cccc2c1CN(C1CCC(=O)NC1=O)C2=O` (stereo not shown) [Form D, 3-(4-amino-1-oxo-1,3 dihydro-isoindol-2-yl)-piperidene-2,6-dione]: in series [5], the hygroscopicity entry is “either weakly or not hygroscopic” and the “interconversion of the polymorphic form” value is given as “will typically convert to Form B when stressed at higher relative humidities”.
